The target of one series is T1, BK2 receptors (Cavia porcellus, UniProt O70526).
T1 construct: This tissue contains predominantly BK2 receptors; from tissue; host or cells: guinea-pig ileum, longitudinal muscle layer with adhering mesenteric plexus
T1 sequence (O70526 1-372): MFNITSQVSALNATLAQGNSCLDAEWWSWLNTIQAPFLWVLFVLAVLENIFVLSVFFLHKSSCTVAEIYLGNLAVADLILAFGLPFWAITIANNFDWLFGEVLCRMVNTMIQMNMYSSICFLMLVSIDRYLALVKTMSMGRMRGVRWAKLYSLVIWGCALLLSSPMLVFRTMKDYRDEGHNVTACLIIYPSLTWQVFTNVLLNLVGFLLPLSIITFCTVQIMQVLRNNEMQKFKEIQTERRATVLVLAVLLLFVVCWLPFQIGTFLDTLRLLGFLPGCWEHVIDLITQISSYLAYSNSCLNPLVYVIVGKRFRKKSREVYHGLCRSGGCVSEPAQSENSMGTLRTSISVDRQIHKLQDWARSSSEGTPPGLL
The series is described as follows: Bradykinin antagonist assay: guinea-pig ileum contraction. The conditions noted are these: at 10^-6 M, BK 2×10^-8 M, atropine 1 μM present.

The target in series [1] is T2, bradykinin receptors (PC 12 cells) (Rattus norvegicus, UniProt P25023).
T2 construct: PC 12 cells that express bradykinin receptors; endogenous in cells; host or cells: PC12 cells
T2 sequence (P25023 1-396): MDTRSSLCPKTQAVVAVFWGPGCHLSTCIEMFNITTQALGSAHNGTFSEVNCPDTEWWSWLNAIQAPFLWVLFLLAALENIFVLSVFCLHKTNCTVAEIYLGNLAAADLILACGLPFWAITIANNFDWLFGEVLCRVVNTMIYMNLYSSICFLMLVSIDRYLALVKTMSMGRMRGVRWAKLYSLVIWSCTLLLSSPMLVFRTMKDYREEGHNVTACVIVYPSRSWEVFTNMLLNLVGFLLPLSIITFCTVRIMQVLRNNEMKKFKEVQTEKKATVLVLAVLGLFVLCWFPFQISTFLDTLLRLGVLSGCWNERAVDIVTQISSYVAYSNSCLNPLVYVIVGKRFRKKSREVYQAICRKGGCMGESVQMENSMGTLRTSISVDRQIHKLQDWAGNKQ
The series is described as follows: Bradykinin antagonist assay: (3H)dopamine release from PC 12 cells. In kind it is cell-based. The following applies: at 10^-6 M; (3H)DA release stimulated by bradykinin, PC12 cells. As to the method:
BRADYKININ ANTAGONIST ASSAY (Displacement of (^3 H)dopamine release from PC 12 cells)
Novel backbone cyclized peptide analogs of the present invention were assayed in vitro for bradykinin antagonist activity by protection of (^3 H)dopamine release from PC 12 cells that express bradykinin receptors. PC12 cells were grown in Dulbecco Modified Eagle's medium with high glucose, supplemented with 10% horse serum, 5% fetal calf serum, 130 units/ml penicillin and 0.1 mg/ml streptomycin. For experiments, cells were removed from the medium using 1 mmole EDTA and replated on collagen coated-12-well plates and assayed 24 hr later. Release of (^3 H)dopamine was determined as follows: cells were incubated for 1.5 hr at 37° C. with 0.5 ml of growth medium and […] (^3 H)DA (41 Ci/mmole) and […] pargyline followed by extensive washing with medium (3×1 ml) and release buffer consisting of (mM): 130 NaCl; 5 KCl; 25 NaHCO3; 1 NaH2 PO4; 10 glucose and 1.8 CaCl2. In a typical experiment, cells were incubated with 0.5 ml buffer for 5 consecutive incubation periods of 3 min each at 37° C. Spontaneous (^3 H)DA release was measured by collecting the medium released by the cells successively for the first 3 min period. Antagonists were added to the cells 3 min prior to stimulation (at the second period), and stimulation of (^3 H)DA release by 100 nmole of bradykinin are monitored during the 3 period by 60 mmole KCl. The remaining of the (^3 H)DA was extracted from the cells by over night incubation with 0.5 ml 0.1N HCl. (^3 H)DA release during each 3 min period was expressed as a % of the total (^3 H)DA content of the cells. Net evoked release was calculated from (^3 H)DA release during stimulation period after subtracting basal (^3 H)DA release in the preceding baseline period if not indicated otherwise.

Series [2] concerns Somatostatin Receptor (SSTR) Subtype SSTR-2B. The series is described as follows: Inhibition of radioactive iodinated somatostatin (SRIF-14) binding, CHO cells expressing SSTR-2B. The following applies: read-out: percent inhibition of SRIF-14 binding, SSTR-2B; for inhibition at 1 µM: Conc. 10^-6 M; for inhibition at 0.1 µM: Conc. 10^-7 M; for inhibition at 0.01 µM: Conc. 10^-8 M. The source says:
(§1) Receptor binding specificity of cyclic peptide analogs
(§2) The values presented are percent inhibition of radioactive iodinated somatostatin (SRIF-14) binding.

The target in series [3] is Somatostatin Receptor (SSTR) Subtype SSTR-5 (Homo sapiens, UniProt P35346). Nature of the series: Inhibition of radioactive iodinated somatostatin (SRIF-14) binding, CHO cells expressing SSTR-5. The following applies: read-out: percent inhibition of SRIF-14 binding, SSTR-5; for inhibition at 1 µM: Conc. 10^-6 M; for inhibition at 0.1 µM: Conc. 10^-7 M; for inhibition at 0.01 µM: Conc. 10^-8 M.
Somatostatin Receptor (SSTR) Subtype SSTR-5, sequence (P35346 whole entry): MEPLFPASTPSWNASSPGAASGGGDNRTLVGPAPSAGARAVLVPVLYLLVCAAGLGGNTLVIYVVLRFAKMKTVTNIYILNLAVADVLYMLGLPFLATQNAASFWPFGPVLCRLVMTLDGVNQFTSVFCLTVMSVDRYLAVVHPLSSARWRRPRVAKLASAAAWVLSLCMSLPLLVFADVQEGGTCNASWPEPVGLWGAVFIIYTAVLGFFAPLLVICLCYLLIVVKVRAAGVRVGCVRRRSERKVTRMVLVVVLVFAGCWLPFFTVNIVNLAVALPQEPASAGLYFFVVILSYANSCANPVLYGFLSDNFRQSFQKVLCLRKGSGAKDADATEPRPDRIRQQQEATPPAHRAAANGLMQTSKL
From the text: as §1, §2

A short description of series [4]: Lack of toxicity of cyclized peptide analogs in rats. It is filed as in vivo. The source says:
Lack of toxicity of cyclized peptide analogs
These two doses are several orders of magnitude higher than those needed to elicit the desired endocrine effect. The peptides dissolved in saline produced no untoward side effects on the central nervous system, cardiovascular system, body temperature, nor on the periphery of the animals.

Series [5] in a line: In vitro biostability in human serum (HPLC determination of peptide degradation). It is filed as in vitro ADME. The conditions noted are these: 37° C., FIG. 1. How it is done:
FIG. 1 is a graph showing in vitro biostability of somatostatin and three analogs thereof in human serum. The graph depicts the percentage of undegraded molecules for each of the compounds initially and after various periods of time.
Resistance to biodegradation of SST analogs
The in vitro biostability of a SST cyclic peptide analog, PTR 3002, was measured in human serum, and was compared to the same sequence in a non-cyclic peptide analog (PTR 3001), to octreotide (Sandostatin), and to native somatostatin (SRIF). […] The assay was based on HPLC determination of peptide degradation as a function of time at 37° C.

Numbered stars: 1 amine (or outer) side, 2 acyl side, 3 side chain; on linkers, the order of the positions; unused ones are H or OH. Bridge positions count the residues as written; N and C are the ends. Square brackets hold non-standard residues; d marks the D form. Peptide text beside a SMILES is read from it. NGly(3-aminopropyl) = O=C(CN(CCCN[*:3])[*:1])[*:2]; N(2-Aminoethyl)Gly = O=C(CN(CCN[*:3])[*:1])[*:2]; N(CH2CH2CO)Gly = O=C(CN(CCC(=O)[*:3])[*:1])[*:2]; N(CH2CH2COOH)Gly = O=C(O)CCNCC(=O)O; Gly(N(CH2)3NH2) = NCCCNCC(=O)O

Somatostatin Receptor (SSTR) Subtype SSTR-2B, sequence (P30874 1-356 isoform P30874-2): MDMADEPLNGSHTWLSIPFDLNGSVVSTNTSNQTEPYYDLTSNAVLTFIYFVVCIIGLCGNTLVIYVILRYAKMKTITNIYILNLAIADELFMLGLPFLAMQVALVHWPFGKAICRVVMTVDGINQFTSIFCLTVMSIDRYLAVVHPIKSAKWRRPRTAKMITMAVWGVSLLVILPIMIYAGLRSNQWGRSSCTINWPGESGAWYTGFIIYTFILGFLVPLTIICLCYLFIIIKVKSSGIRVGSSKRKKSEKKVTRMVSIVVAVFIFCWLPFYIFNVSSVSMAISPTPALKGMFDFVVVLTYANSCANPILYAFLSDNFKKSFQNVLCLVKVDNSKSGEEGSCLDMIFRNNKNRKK
Protocol for BK2 receptors: The ileum of the guinea-pig was selected as the preparation for the bioassay. This tissue contains predominantly BK2 receptors. The preparation consists of the longitudinal muscle layer with the adhering mesenteric plexus. The isolated preparation was kept in Krebs solution and contractions were measured with an isometric force transducer. […] Atropine (1 μM) was always present.

In the case of “Ada-D-Arg-Arg-N^α (6-acetamidohexylene)Gly-Hyp-Phe-D-Asp(NH-Me)-D-Phe-Phe-Arg--OH [Example 2]”, the “inhibition of BK activity” value (against BK2 receptors; in series [1]) was 0% each time.
On to `C[C@@H](O)[C@H](NC(=O)CN(CCCN)C(=O)[C@@H](NC(=O)[C@H](CCCCN)NC(=O)[C@@H](Cc1c[nH]c2ccccc12)NC(=O)[C@H](Cc1ccccc1)NC(=O)CN(CC(=O)O)C(=O)[C@H](N)Cc1ccccc1)[C@@H](C)O)C(N)=O` [PTR 3005], for which, in series [2], the inhibition at 1 µM was found to be 0%, the inhibition at 0.1 µM came to 0% and the inhibition at 0.01 µM was determined as 0%. For the same molecule, in series [3], the inhibition at 1 µM came to 9%, the inhibition at 0.1 µM amounted to 0% and the inhibition at 0.01 µM came out at 0%.
In the case of `C[C@@H](O)[C@H](NC(=O)CN1CCCNC(=O)CCN(C(=O)[C@H](N)Cc2ccccc2)CC(=O)N[C@@H](Cc2ccccc2)C(=O)N[C@H](Cc2c[nH]c3ccccc23)C(=O)N[C@@H](CCCCN)C(=O)N[C@@H]([C@@H](C)O)C1=O)C(N)=O` [PTR 3007] (H-[dF][N(CH2CH2CO)Gly]F[dW]KT[NGly(3-aminopropyl)]T-NH2; lactam 2-7), the “respiratory disturbances, stereotyped behavior, muscle tone” value in series [4] (rats observed for 4 hours post administration) is “no respiratory disturbances”. Moreover, in series [4] (rats, dose of 1.5 mg/kg), the “tolerability after single intraperitoneal application” value is reported as “well tolerated”.
Take `C[C@@H](O)[C@H](NC(=O)CN1CCNC(=O)CCN(C(=O)[C@H](N)Cc2ccccc2)CC(=O)N[C@@H](Cc2ccccc2)C(=O)N[C@H](Cc2c[nH]c3ccccc23)C(=O)N[C@@H](CCCCN)C(=O)N[C@@H]([C@@H](C)O)C1=O)C(N)=O` [PTR 3002] (H-[dF][N(CH2CH2CO)Gly]F[dW]KT[N(2-Aminoethyl)Gly]T-NH2; lactam 2-7): the “in vitro biostability in human serum” value in series [5] was “as stable as octreotide, is more stable than the corresponding non-cyclic structure, and is much more stable than SRIF”.
As for `C[C@@H](O)[C@H](NC(=O)CN(CCCN)C(=O)[C@@H](NC(=O)[C@H](CCCCN)NC(=O)[C@@H](Cc1c[nH]c2ccccc12)NC(=O)[C@H](Cc1ccccc1)NC(=O)CN(CCC(=O)O)C(=O)[C@H](N)Cc1ccccc1)[C@@H](C)O)C(N)=O` [PTR 3008] (H-[dF][N(CH2CH2COOH)Gly]F[dW]KT[Gly(N(CH2)3NH2)]T-NH2), in series [2], the inhibition at 1 µM was 0%, the inhibition at 0.1 µM stood at 0% and the inhibition at 0.01 µM stood at 0%. Also, in series [3], the inhibition at 1 µM was determined as 15%, the inhibition at 0.1 µM is 6% and the inhibition at 0.01 µM was determined as 0%.
As to “H-D-Arg-Arg-cyclo(N^α (4-propanoyl)Gly-Hyp-Phe-N^α (3-amido-propyl)-S-Phe)-Ser-D-Phe-Phe-Arg--OH [Example 4]”, the “inhibition of BK activity” value in series [1] is recorded as 17%.
On to “Ada-(D)Arg-Arg-cyclo(N^α (1-(6-aminohexylene)Gly-Hyp-Phe-D-Asp)-D-Phe-Phe-Arg--OH [Example 1]”, for which the “inhibition of BK activity” value in series [1] is reported as 30%.

Source of the values: US5883293A, “Conformationally constrained backbone cyclized peptide analogs” (Peptor Ltd., priority 1994, dated 1999).
